Assay results as given in patent publication US20080226596A1, “Therapeutic compositions and methods useful in treating hepatitis” (priority 2006, published 2008).
“Also recorded” adds a separate entry of the source.

Key:
Jurkat cells = experiment: IFN-gamma secretion by Jurkat cells, ELISA; assay type: cell-based, human; settings: 16 hrs
Method: Jurkat cells were cultured in the absence or presence of various amounts of SSG for 16 hours. The cells and culture medium supernatants were separated by centrifugation (1,000 g, 10 min). The amounts of IFN-gamma in the culture medium supernatants were quantified using an ELISA kit (R.D. system, Minneapolis, Minn.) following the manufacturer's protocol.

Baf3 cells = experiment: Baf3 cell proliferation assay; assay type: cell-based, murine
Method: (§1) The murine hematopoietic cell line Baf3 was maintained in RPMI 1640 medium supplemented with 10% fetal calf serum (FCS) and murine IL-3 (20 units/ml) as described previously in Damen et al., J. Biol. Chem. 270, 23402 (1995). Human myeloid cell line TF-1 was maintained in RPMI 1640 supplemented with 10% FCS and 40 ng/ml of recombinant human GM-CSF as described previously in Thomassen et al., Clin. Immunol. 95, 85 (2000). For cell proliferation assays, cells were washed in 10% FCS medium twice, resuspended in 10% FCS medium, incubated at 37° C. for 16 hours, and then cultured at 37° C. in 10% FCS medium containing various amounts of cytokines, sodium stibogluconate, or potassium antimonyl tartrate for 3-6 days as indicated. The cell numbers in proliferation assays were determined by an MTT assay or by microscopic cell counting as indicated.

TF-1 cells = experiment: TF-1 cell proliferation assay; assay type: cell-based, human
Method: as §1

A549 cells = experiment: A549 lung cancer cell growth, MTT assay; assay type: cell-based, human; settings: 100 μg/ml, day 6
Method: (§2) NIH3T3 (Yi, et al., Blood 85, 87 (1995)), WM9 (Forsberg, et al., Proc. Nat. Acad Sci. USA 90, 393 (1993)), DU145 (Mickey, et al., Cancer Res. 37, 4049 (1977)), LoVo (Drewinko, et al., Cancer Res. 36, 467 (1976)), HEY (Buick, et al., Cancer Res. 45, 3668 (1985)), U251 (Yoshida, et al., Cancer 50, 410 (1982)), A549 (Giard, et al., J. Natl. Cancer Inst. 51, 1417 (1973)) and SK-N-SH (Helson, et al., Cancer Res. 35, 2594 (1975)) cell lines have been described and were cultured in RPMI 1640 supplemented with 10% fetal calf serum (FCS). For measurement of sodium stibogluconate effects on cell growth in vitro, cells were cultured in the absence (−) or presence (+) of various amounts of sodium stibogluconate for 6 days with viable cells quantified by MTT assays (Mosmann, J. Immunol. Methods 65, 55 (1983)). Percentages of growth inhibition by sodium stibogluconate were calculated (.+−.x

PTP1B = target: T1, PTP1B (Homo sapiens, UniProt P18031); experiment: In vitro PTPase assay, GST/PTP1B; assay type: biochemical; settings: compared with levamisole, pentamidine, ketoconazole
T1 construct: GST; purchased Upstate Biotechnology Inc. (Lake Placid, N.Y.)
T1 sequence (P18031 whole entry, species assumed): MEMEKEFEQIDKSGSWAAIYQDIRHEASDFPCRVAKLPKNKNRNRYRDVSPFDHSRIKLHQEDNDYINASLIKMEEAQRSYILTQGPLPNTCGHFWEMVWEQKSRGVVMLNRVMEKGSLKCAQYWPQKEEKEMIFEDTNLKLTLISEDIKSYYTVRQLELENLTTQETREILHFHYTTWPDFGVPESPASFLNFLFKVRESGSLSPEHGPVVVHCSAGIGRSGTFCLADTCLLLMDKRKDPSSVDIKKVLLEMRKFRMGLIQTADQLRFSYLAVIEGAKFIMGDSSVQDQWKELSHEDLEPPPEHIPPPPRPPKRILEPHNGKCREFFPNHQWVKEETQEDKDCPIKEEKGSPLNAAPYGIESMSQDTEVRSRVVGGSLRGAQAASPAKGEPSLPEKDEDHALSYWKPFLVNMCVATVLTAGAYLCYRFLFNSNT
Method: In vitro PTPase activities were measured using the commercial protein tyrosine phosphatase assay kit (Upstate Biotechnology, Inc. (“UBI”)) following established procedure known to one of skill in the art. This assay measures the in vitro dephosphorylation of a synthetic phosphotyrosine peptide of the sequence Arg-Arg-Leu-Ile-Glu-Asp-Ala-Gle-Tyr-Ala-Ala-Arg-Gly, wherein the tyrosine is phosphorylated (SEQ ID NO: 3). Briefly, 0.01 µg of GST/PTPase fusion proteins was incubated in 50 μL of Tris buffer (10 mM Tris, pH 7.4) containing different concentrations of inhibitors or chemicals (0-1,000 μg/ml) at 22° C. for 10 minutes, followed by addition of 0.2 mM of the phosphotyrosine peptide and incubation at 22° C. for 18 hours. 100 μL of Malachite Green solution was added and incubated for 5 minutes, and the absorbance at 660 nm was measured after 5 minutes.
In vitro PTPase assays were used to determine the effects of levamisole (Sigma), pentamidine (American Pharmaceutical Partners, Inc.), and ketoconazole (Sigma) on recombinant PTPases, following established procedures (Pathak et al., J. Imumol. 167, 3391 (2001); Pathak et al., Leukemia 16, 2285 (2002), Yi et al., J. Immunol. 169, 5978 (2002)) using a synthetic phosphotyrosine peptide or DiFMUP as the substrate as detailed above in section I.A.2.

HEY cells = experiment: HEY ovarian cancer cell growth, MTT assay; assay type: cell-based, human; settings: 100 μg/ml, day 6
Method: as §2

intracellular Flag-PRL-2 = target: T2, intracellular Flag-PRL-2 (Homo sapiens, UniProt Q12974); experiment: Immunocomplex PTPase assay, Flag-PRL-2 NIH3T3 transfectants; assay type: cell-based, mouse
T2 construct: expressed in transfected cells; host or cells: NIH3T3 transfectants, pBabepuro vector
T2 sequence (Q12974 whole entry): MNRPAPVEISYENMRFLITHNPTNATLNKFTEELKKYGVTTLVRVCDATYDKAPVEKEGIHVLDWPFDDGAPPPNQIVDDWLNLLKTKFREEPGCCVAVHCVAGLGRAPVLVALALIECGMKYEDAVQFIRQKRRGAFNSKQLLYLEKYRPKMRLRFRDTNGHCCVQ
Method: Immunocomplex PTPase assays were performed to assess the effects of sodium stibogluconate on intracellular PTPases. Cells were untreated or treated with sodium stibogluconate for 5 minutes, washed with fresh medium and then lysed in cold lysis buffer (50 mM Tris, pH 7.4; 150 mM NaCl; 1% NP40; 2 mM PMSF; 20, g/ml of Aprotinin). The lysates were incubated with an anti-Flag antibody in immunoprecipitation assays. The immunocomplexes were collected with protein G sepharose beads (Pharmacia) and washed in cold lysis buffer for 4 times. […] 100 µL of malachite green solution (UBI) was added to each reaction prior to measurement of OD660 to quantify the amounts of free phosphate cleaved by the PTPases from the peptide substrate (Pathak et al., J. Imumol. 167, 3391 (2001)). The remaining 10% contents of individual samples were analyzed by SDS-PAGE/Western blotting to quantify the relative amounts of the phosphatase proteins. […]
The effects of sodium stibogluconate on intracellular PTPases were assessed using NIH3T3 or WM9 transfectants. […]

In the case of `O.O.O.O.O.O.O.O.O.O=C([O-])[C@@H]1[O][Sb]2([O-])([O][Sb]34([OH])[O][C@H]([C@H](O)CO)[C@H]([O]3)[C@H](C(=O)[O-])[O]4)[O][C@H]([C@H](O)CO)[C@@H]1[O]2.[Na+].[Na+].[Na+]` [sodium stibogluconate], the “IFN-gamma secretion by Jurkat T cells” value (Jurkat cells) is reported as “increased amounts of IFN-gamma”, the “IL-3-induced Baf3 growth” value (Baf3 cells; 1,000 μg/ml) is reported as “suppressed IL-3-induced Baf3 growth” and the “Baf3 proliferation/viability” value (Baf3 cells; absence of IL-3, day 3 culture) is reported as “failed to support cell proliferation or maintain cell viability”. For the same molecule, the “effect on GM-CSF-induced cell growth” value (TF-1 cells; 12.5-50 μg/ml) was “no negative effect on GM-CSF-induced cell growth”, the “GM-CSF-induced TF-1 proliferation” value (TF-1 cells; sodium stibogluconate 50 μg/ml, GM-CSF 5-40 ng/ml) was “augmented” and the “killing of A549 cells” value (A549 cells) was “near-complete cell killing”. The “inhibition of PTP1B” value (PTP1B) was “only modestly effective”, the “killing of HEY cells” value (HEY cells) was “near-complete cell killing” and the “PTPase activity of Flag-PRL-2 immunocomplexes from treated cells” value (intracellular Flag-PRL-2; 5 min treatment) was “lack of PTPase activity; also recorded: markedly reduced PTPase activity”. For the same molecule, the “time for full removal of effect on intracellular PRL-2 activity” value (intracellular Flag-PRL-2; brief treatment) was “at least 24 hours”.
